This test concerns the target CB1 (rCB1) (Rattus norvegicus, UniProt P20272). In words: Single-point radioligand displacement screen. It counts as binding. Particulars: for % 1H-CP-55,940 displacement (mean) from single point screen: 10 µM, 1 µM or 300 nM by cell colour (not visible); for rep1_displacement / rep2_displacement / rep3_displacement: Figure 1c source data; for rep1_displacement: replicate 1; for rep2_displacement: replicate 2; for rep3_displacement: replicate 3; for % radioligand displacement [S.D]: single point at 10 µM, three replicates.

Chain of CB1 (rCB1) (P20272 whole entry): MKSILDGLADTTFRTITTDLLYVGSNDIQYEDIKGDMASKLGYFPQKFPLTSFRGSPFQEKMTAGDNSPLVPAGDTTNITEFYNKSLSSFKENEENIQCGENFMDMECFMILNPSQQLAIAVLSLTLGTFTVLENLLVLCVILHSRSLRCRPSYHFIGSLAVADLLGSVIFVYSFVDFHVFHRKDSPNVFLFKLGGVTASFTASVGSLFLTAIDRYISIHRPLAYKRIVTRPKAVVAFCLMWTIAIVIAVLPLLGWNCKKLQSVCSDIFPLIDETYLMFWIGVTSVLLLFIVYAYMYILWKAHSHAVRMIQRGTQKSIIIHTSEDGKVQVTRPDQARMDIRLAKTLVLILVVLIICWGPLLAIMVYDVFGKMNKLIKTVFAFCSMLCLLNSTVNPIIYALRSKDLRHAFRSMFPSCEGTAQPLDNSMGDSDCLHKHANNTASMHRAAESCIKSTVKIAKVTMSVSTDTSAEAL

Regarding `Cc1c(C(=O)N(C)CC2COc3ccccc3O2)cnn1-c1ccccc1` (centres unmarked) [compound 4148], the “% 1H-CP-55,940 displacement (mean) from single point screen” value (from here on “% 1H-CP-55,940 displacement (mean)”) is 11.41%.

`Cn1ncc2c(N3CCC(COCc4ccccc4)C3)nc(Cl)nc21` (centres unmarked) [compound 66978]: the “% 1H-CP-55,940 displacement (mean)” value was -5.01%, the rep1_displacement was found to be 10, the rep2_displacement is -21.7 and the rep3_displacement was -3.3.

Take `Cc1cc(C(=O)NC(c2cccnc2)C2CC2)nn1-c1cccc(C#N)c1` (centres unmarked) [compound 74836]: the “% 1H-CP-55,940 displacement (mean)” value came out at 33.29%, the rep1_displacement turned out to be 34.5, the rep2_displacement is recorded as 34.8 and the rep3_displacement amounted to 30.5.

Turning to `Cn1nc(-c2nnc(CCOc3ccc(Cl)cc3)o2)c2ccccc2c1=O` [0450_24], the “% 1H-CP-55,940 displacement (mean)” value is 12.07%.

Take `COC(=O)C(OC(=O)c1cc(C)n(-c2ccc(F)cc2)n1)c1ccccc1` (centres unmarked) [compound 62406]: the “% 1H-CP-55,940 displacement (mean)” value is recorded as -3.66%.

Take `COC(=O)C(NC(=O)c1coc(C2CCOCC2)n1)c1cccs1` (centres unmarked) [compound 19213]: the “% 1H-CP-55,940 displacement (mean)” value stood at 1.83%.

Take `O=C(OCc1nc2ccccc2s1)c1c2c(nc3ccccc13)CCC2` [compound 47700]: the “% 1H-CP-55,940 displacement (mean)” value is given as 27.24%, the rep1_displacement was 29.5, the rep2_displacement turned out to be 33.4 and the rep3_displacement is on record as 18.9.

For `Cc1c(C(=O)OCC2CSc3ccccc3S2)cnn1Cc1ccccc1` (centres unmarked) [7800_26], the “% 1H-CP-55,940 displacement (mean)” value is listed as 69.84%.

With `COC(=O)C(NC(=O)c1cn(Cc2ccccc2)nn1)c1cccs1` (centres unmarked) [compound 54064], the “% 1H-CP-55,940 displacement (mean)” value stood at 4.29%.

Regarding `CC1(C)CN(C(=O)c2cn(-c3cccc(C(F)(F)F)c3)nn2)C1c1cccs1` (centres unmarked) [10_20], the “% 1H-CP-55,940 displacement (mean)” value is listed as 52.38%.

`Cn1nc(-c2nnc(C(C)(C)Oc3ccc(F)cc3)o2)c2ccccc2c1=O` [compound 31486]: the “% 1H-CP-55,940 displacement (mean)” value came to 32.26%.

As to `C=CCn1c(SC(C)COC)nc2cc(-c3ccccc3)sc2c1=O` (centres unmarked) [compound 50746], the “% 1H-CP-55,940 displacement (mean)” value is 26.93%, the rep1_displacement was 27.8, the rep2_displacement was 26.8 and the rep3_displacement is on record as 26.1.

For the molecule `COc1cc(C(=O)OCC2CCCN2c2ccc(C)nn2)ccc1Cl` (centres unmarked) [compound 65703], the “% 1H-CP-55,940 displacement (mean)” value worked out at 17.38%, the rep1_displacement amounted to 11.4, the rep2_displacement stood at 18.4 and the rep3_displacement is on record as 22.4.

For the molecule `CCCC1CN(C(=O)c2cc(Oc3cccc(Br)c3)ccn2)CCO1` (centres unmarked) [compound 83628], the “% 1H-CP-55,940 displacement (mean)” value was found to be 12.80%, the rep1_displacement worked out at 14, the rep2_displacement worked out at 14.4 and the rep3_displacement is 10.1.

Regarding `O=C(OCc1ncnn1-c1ccccc1)c1csc(Cc2ccccc2F)n1` [compound 67565], the “% 1H-CP-55,940 displacement (mean)” value was determined as 8.02%, the rep1_displacement was 8 and the rep3_displacement came out at 8.

Regarding `CC(C)c1ncc(Cl)c(C(=O)N2CC(Cc3ccccc3Cl)C2)n1` [compound 56513], the “% 1H-CP-55,940 displacement (mean)” value came to 36.74%, the rep1_displacement is 17.6, the rep2_displacement was found to be 25.1 and the rep3_displacement came to 67.5.

Consider `O=C(CCc1ccccc1)c1cn(C2(c3ccc(F)cc3)CCOCC2)nn1` [‘7337], for which the “% 1H-CP-55,940 displacement (mean)” value is reported as 56.96%, the rep1_displacement stood at 60.4, the rep2_displacement came to 55.9 and the rep3_displacement is reported as 54.6. In addition, the “% radioligand displacement [S.D]” value was 57.0% [3.04].

With `Fc1ccc(-n2ncc3c(SCc4cc(-c5ccco5)on4)ncnc32)cc1` [compound 23397], the “% 1H-CP-55,940 displacement (mean)” value turned out to be 17.08%, the rep1_displacement is recorded as 23, the rep2_displacement came out at 15.9 and the rep3_displacement is recorded as 12.4.

As to `COc1cc(OC)cc(-c2nc([C@H](OC)c3ccc(Br)cc3)no2)c1` [compound 13596], the “% 1H-CP-55,940 displacement (mean)” value is 47.56%, the rep1_displacement was 46.1 and the rep2_displacement turned out to be 49.

`O=C(OCC1CSc2ccccc2O1)c1ccc(Oc2cccnc2)cc1` (centres unmarked) [compound 82778]: the “% 1H-CP-55,940 displacement (mean)” value is 26.16%.

Turning to `COC1CCn2cc(C(=O)NCC(Cc3ccccc3)c3ccccc3)nc2C1` (centres unmarked) [compound 96198], the “% 1H-CP-55,940 displacement (mean)” value worked out at 18.71%, the rep1_displacement amounted to 19.2, the rep2_displacement was 20.5 and the rep3_displacement is 16.4.

`COC(=O)[C@H](C)NC(=O)c1cc(C)n(-c2cccc(F)c2)n1` [1486_11]: the “% 1H-CP-55,940 displacement (mean)” value was -7.46%.

Regarding `Cc1nc(C2CC2)oc1-c1nc(Cc2ccc3c(c2)OCO3)no1` [compound 0682], the “% 1H-CP-55,940 displacement (mean)” value is on record as -7.41%.

In the case of `Cc1ccn2cc(C(=O)N3CCc4c(F)cc(Br)cc4C3)nc2c1` [compound 35971], the “% 1H-CP-55,940 displacement (mean)” value is reported as 13.78%, the rep1_displacement turned out to be 9.7, the rep2_displacement was found to be 11.6 and the rep3_displacement is recorded as 20.

Regarding `Cc1cc(C(=O)NC(c2ccccc2)c2ccco2)nn1-c1cccc(F)c1` (centres unmarked) [compound 88684], the “% 1H-CP-55,940 displacement (mean)” value was found to be 39.72%.

As to `COc1ccc(Cl)c(-c2cc(C(=O)N3CCOC[C@@H]3CC(C)C)on2)c1` [compound 97878], the “% 1H-CP-55,940 displacement (mean)” value was 33.55%, the rep1_displacement was determined as 62.5, the rep2_displacement is reported as 14.5 and the rep3_displacement is 23.7.

In the case of `COC(=O)[C@@H](NC(=O)c1cc(C)n(-c2cccc(F)c2)n1)c1ccc(OC)cc1` [compound 59513], the “% 1H-CP-55,940 displacement (mean)” value is reported as 10.54%.

As to `CCCCCCC1(c2cc(O)c3c(c2)OC(C)(C)[C@@H]2CC[C@@H](O)C[C@@H]32)CCC1` [AM2389, reference compound], the rep1_displacement stood at 99.9, the rep2_displacement stood at 99.9 and the rep3_displacement was determined as 99.8.

Consider `COc1ccc(OC(C)(C)c2nnc(-c3nn(C)c(=O)c4ccccc34)o2)cc1` [compound 9753], for which the “% 1H-CP-55,940 displacement (mean)” value was 51.55%.

`Cc1ccccc1-n1c(=O)c2ccccc2n2c(SC[C@H]3CCCO3)nnc12` [compound 97662]: the “% 1H-CP-55,940 displacement (mean)” value is recorded as 18.48%, the rep1_displacement was 20.6, the rep2_displacement came out at 19.4 and the rep3_displacement stood at 15.5.

As for `Cc1c(C(=O)OCC2CSc3ccccc3O2)nnn1Cc1ccc(F)cc1` (centres unmarked) [compound 61926], the “% 1H-CP-55,940 displacement (mean)” value is on record as 64.39%.

In the case of `Cc1cc(C(=O)N2CC3(CCC3)C2c2ccco2)nn1-c1cccc(C(F)(F)F)c1` (centres unmarked) [10_10], the “% 1H-CP-55,940 displacement (mean)” value came out at 94.41%.

For `CC1OCCC12CN(C(=O)c1oc3ccccc3c1COc1ccccc1)CCO2` (centres unmarked) [compound 70889], the “% 1H-CP-55,940 displacement (mean)” value was found to be 46.62%, the rep1_displacement was determined as 47.8, the rep2_displacement was found to be 46.3 and the rep3_displacement worked out at 45.8.

`O=C(c1ccccc1CS(=O)(=O)c1ccccc1)N1CCC(c2cccc(F)c2)C1` (centres unmarked) [compound 41949]: the “% 1H-CP-55,940 displacement (mean)” value was determined as 33.74%, the rep1_displacement worked out at 30, the rep2_displacement stood at 36.7 and the rep3_displacement amounted to 34.6.

For the molecule `O=C(OCC1CSc2ccccc2O1)c1csc(Cc2ccccc2)n1` (centres unmarked) [compound 86798], the “% 1H-CP-55,940 displacement (mean)” value worked out at 2.04%.

Consider `COCc1nc(-c2nc(Cc3ccc4c(c3)OCO4)no2)c(-c2ccccc2)s1` [7019_29], for which the “% 1H-CP-55,940 displacement (mean)” value was 24.10%.

In the case of `Cc1nc(CC2CC2)oc1-c1nc(Cc2ccc3c(c2)OCCCO3)no1` [7019_1], the “% 1H-CP-55,940 displacement (mean)” value was found to be 6.40%.

Turning to `Cc1c(C(=O)OCc2nc3ccccc3o2)cnn1Cc1ccccc1` [compound 8354], the “% 1H-CP-55,940 displacement (mean)” value came to 59.03%.

Regarding `Cc1c(C(=O)OCC2COc3ccccc3O2)cnn1Cc1ccccc1` (centres unmarked) [compound 32445], the “% 1H-CP-55,940 displacement (mean)” value is recorded as 35.36%.

Regarding `N#CCCn1ncc(C(=O)N2CCC(F)(c3cc(F)cc(F)c3)C2)c1-c1ccccc1` (centres unmarked) [compound 34734], the “% 1H-CP-55,940 displacement (mean)” value is reported as 15.43%, the rep1_displacement is 21.6, the rep2_displacement amounted to 10.3 and the rep3_displacement came to 14.4.

For `CC1C(C(F)(F)F)CCN1C(=O)c1csc(N(C)c2ccccc2)n1` (centres unmarked) [compound 27005], the “% 1H-CP-55,940 displacement (mean)” value was found to be 32.20%, the rep1_displacement is 31.7, the rep2_displacement was 30.7 and the rep3_displacement was 34.2.

Take `O=C(NCC1CSc2ccccc2O1)c1ncc(Cc2ccccc2)o1` (centres unmarked) [compound 5752]: the “% 1H-CP-55,940 displacement (mean)” value is 24.02%.

`Cc1c(C(=O)OCC2CSc3ccccc3O2)cnn1Cc1cccc(C(F)(F)F)c1` (centres unmarked) [7800_25]: the “% 1H-CP-55,940 displacement (mean)” value was determined as 58.49%.

With `Cc1cc(C(=O)Nc2ccnn2-c2cccc(Cl)c2)nn1[C@H](C)C1CC1` [‘7902], the “% 1H-CP-55,940 displacement (mean)” value worked out at 57.08%, the rep1_displacement amounted to 57, the rep2_displacement is recorded as 57.3 and the rep3_displacement came out at 57. Besides, the “% radioligand displacement [S.D]” value was 57.1% [0.02].

Turning to `CN(C)c1cc(-c2nc(Cc3ccc4c(c3)OCCO4)no2)c2ccccc2n1` [compound 85562], the “% 1H-CP-55,940 displacement (mean)” value turned out to be 44.88%, the rep1_displacement stood at 45.9, the rep2_displacement was 44.2 and the rep3_displacement was 44.5.
